The source of these data is article PMC11327140, “Selective inhibitor of sodium-calcium exchanger, SEA0400, affects NMDA receptor currents and abolishes their calcium-dependent block by tricyclic antidepressants” (Frontiers in Pharmacology, 2024).

The structures appear in SMILES notation. pIC50: −log10 of the molar value. Where “and” joins values, the source holds several entries; their conditions need not be identical. Equal entries are not always repeated. Entries after “also recorded” stand apart in the source; their conditions may differ.

In assay [1] the target is NMDA receptor (NMDAR) currents (Rattus norvegicus, UniProt P35439+Q00959+Q00960). Description: Whole-cell patch-clamp recording of NMDA-activated currents in cortical neurons of primary culture. It counts as cell-based. To be noted: for change of fraction of current blocked in the presence of SEA0400: 50 nM SEA0400, 10 µM KB-R7943, 10 µM ATL, 1 µM DES; for increase of IC50 for NMDAR inhibition in the presence of SEA0400: 50 nM SEA0400 versus control. For orientation: In patch-clamp work, channel activity is measured electrically.
Sequence of NMDA receptor (NMDAR) currents (Q00960 27-1482 limits assumed, other chains not shown): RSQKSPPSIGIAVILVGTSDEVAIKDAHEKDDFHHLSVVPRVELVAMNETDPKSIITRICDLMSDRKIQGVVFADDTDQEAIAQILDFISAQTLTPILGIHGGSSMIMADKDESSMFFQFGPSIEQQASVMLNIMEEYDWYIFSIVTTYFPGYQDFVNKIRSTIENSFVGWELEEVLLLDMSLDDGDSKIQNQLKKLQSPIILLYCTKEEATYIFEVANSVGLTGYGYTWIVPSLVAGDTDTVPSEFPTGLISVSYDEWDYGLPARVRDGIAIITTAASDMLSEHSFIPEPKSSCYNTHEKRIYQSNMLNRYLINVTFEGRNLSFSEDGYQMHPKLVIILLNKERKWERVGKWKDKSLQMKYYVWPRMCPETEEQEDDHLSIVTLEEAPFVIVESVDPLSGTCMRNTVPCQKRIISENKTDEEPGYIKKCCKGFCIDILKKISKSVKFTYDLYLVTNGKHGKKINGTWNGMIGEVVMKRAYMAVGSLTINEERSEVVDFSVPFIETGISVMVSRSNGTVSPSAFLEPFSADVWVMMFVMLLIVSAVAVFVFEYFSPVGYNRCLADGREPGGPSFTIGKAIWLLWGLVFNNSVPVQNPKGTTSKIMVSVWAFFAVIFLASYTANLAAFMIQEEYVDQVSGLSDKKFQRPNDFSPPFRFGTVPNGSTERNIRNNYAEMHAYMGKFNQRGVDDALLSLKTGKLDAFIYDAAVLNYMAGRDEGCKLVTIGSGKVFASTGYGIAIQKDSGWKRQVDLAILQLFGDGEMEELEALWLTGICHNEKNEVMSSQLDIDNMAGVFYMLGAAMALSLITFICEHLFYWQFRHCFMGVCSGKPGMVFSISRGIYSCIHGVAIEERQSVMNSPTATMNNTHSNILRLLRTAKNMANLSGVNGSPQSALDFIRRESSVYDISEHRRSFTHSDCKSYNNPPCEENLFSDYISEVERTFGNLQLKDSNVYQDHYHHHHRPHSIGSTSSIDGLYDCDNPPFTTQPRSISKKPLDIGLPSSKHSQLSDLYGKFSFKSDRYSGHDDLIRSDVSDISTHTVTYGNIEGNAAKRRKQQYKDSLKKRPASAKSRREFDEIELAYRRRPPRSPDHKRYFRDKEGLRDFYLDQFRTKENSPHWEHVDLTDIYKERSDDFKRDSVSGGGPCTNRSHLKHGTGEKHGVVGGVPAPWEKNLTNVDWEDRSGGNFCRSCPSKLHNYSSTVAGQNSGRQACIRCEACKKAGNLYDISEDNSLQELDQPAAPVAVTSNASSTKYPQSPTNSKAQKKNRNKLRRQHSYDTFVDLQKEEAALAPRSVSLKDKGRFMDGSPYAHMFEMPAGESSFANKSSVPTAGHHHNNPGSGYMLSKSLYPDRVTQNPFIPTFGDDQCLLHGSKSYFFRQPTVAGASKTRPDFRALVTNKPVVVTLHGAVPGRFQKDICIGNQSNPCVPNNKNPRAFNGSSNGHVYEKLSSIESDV
Sequence of NMDA receptor (NMDAR) currents (Q00959 23-1464 limits assumed, other chains not shown): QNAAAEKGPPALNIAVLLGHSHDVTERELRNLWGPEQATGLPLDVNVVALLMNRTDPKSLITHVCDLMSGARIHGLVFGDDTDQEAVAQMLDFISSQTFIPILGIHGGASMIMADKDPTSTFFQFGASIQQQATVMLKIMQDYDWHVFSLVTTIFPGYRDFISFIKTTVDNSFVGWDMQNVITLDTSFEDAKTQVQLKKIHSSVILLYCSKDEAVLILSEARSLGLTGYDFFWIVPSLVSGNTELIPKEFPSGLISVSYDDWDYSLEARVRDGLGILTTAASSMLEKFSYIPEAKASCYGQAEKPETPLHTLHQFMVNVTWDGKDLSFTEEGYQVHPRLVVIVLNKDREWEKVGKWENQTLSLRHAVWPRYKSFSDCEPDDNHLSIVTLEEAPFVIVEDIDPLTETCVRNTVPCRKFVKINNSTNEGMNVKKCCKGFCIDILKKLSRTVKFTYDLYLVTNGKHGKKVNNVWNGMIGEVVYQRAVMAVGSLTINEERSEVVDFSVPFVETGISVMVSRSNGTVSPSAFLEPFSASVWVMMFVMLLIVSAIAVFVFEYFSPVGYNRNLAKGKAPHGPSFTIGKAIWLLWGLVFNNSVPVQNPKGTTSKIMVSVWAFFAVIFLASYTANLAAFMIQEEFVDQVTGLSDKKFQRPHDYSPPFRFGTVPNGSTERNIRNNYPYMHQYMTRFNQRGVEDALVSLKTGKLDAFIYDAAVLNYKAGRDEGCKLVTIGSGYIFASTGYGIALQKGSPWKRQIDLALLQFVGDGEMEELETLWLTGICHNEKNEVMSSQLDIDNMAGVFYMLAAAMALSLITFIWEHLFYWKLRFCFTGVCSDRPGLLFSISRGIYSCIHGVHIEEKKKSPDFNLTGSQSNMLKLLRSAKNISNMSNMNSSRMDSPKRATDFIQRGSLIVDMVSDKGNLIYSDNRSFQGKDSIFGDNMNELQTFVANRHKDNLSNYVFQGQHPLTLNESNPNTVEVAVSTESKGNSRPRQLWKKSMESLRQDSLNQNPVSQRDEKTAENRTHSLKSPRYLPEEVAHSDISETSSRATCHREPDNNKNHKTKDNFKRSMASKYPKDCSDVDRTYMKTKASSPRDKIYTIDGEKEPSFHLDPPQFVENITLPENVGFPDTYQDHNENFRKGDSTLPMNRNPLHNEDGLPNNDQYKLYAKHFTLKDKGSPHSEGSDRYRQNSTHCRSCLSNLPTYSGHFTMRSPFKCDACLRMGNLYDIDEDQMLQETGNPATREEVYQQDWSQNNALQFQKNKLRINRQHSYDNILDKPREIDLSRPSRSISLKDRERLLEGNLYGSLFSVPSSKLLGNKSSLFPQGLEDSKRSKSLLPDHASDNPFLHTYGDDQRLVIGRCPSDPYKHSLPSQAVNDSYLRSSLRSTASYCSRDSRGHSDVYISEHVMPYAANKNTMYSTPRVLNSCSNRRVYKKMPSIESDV

A further assay has as its system NMDAR currents. More on the design: method as in Sibarov et al., 2015. The settings on record: 10 µM KB-R7943; ref Sibarov et al., 2015; cited from earlier work.
For another assay, the system named is NMDAR channels. More on the design: method as in MacDonald et al., 1991. The settings on record: ref MacDonald et al., 1991; cited from earlier work.
A further assay has as its system NCX. On the set-up: method as in Matsuda et al., 2001. To be noted: ref Matsuda et al., 2001; read-out: IC50 for SEA0400 inhibition of NCX in neurons; cited from earlier work.

With `CN(C)CCC=C1c2ccccc2CCc2ccccc21` [ATL, amitriptyline], the “change of fraction of current blocked in the presence of SEA0400” value (from here on “change of fraction of current blocked”) in assay [1] (1 mM Ca2+, -70 mV) is on record as “decreased”. The figures for the “increase of IC50 for NMDAR inhibition in the presence of SEA0400” value in assay [1] and in assay [1] (listed as amitriptyline) were 23 fold and “about 20 fold”, respectively.

Consider `CNCCCN1c2ccccc2CCc2ccccc21` [DES, desipramine], for which, in assay [1] (1 mM Ca2+, -70 mV), the “change of fraction of current blocked” value is recorded as “decreased”. The “increase of IC50 for NMDAR inhibition in the presence of SEA0400” value in assay [1] is reported as roughly 16 fold; in assay [1] (listed as desipramine), “about 20 fold”.

In the case of `N=C(N)SCCc1ccc(OCc2ccc([N+](=O)[O-])cc2)cc1` [KB-R7943], the “decrease of NMDAR currents” value in the assay with NMDAR currents is on record as “about 60%”. Besides, the “change of fraction of current blocked” value in assay [1] (1 mM Ca2+, -70 mV) is given as “increased”.

Regarding `C[C@]12N[C@H](Cc3ccccc31)c1ccccc12` [MK-801], in the assay on NMDAR channels, the “rate constant of dissociation from NMDAR channels” value is roughly 0.003 s⁻¹.

Broadly, the pIC50 is the negative decadic logarithm of the IC50, by convention in mol/L. Regarding `CCOc1ccc(Oc2ccc(OCc3cc(F)ccc3F)cc2)c(N)c1` [SEA0400], the pIC50 was 7.48 with NCX; 7.57 and ~7.57 in assay [1] (2 mM Ca2+, -70 mV, 100 µM NMDA + 30 µM Gly, steady state, read-out: IC50 for SEA0400 inhibition of NMDA-activated currents). In addition, the “decrease of decay time constant versus control” value in assay [1] (50 nM SEA0400, 1 mM Ca2+) was 2 fold. Moreover, the “effect on NMDAR currents in BAPTA-loaded neurons” value in assay [1] (50 nM SEA0400, 1 mM external Ca2+, neurons loaded with BAPTA) is on record as “abolished the effect; also recorded: did not cause NMDAR inhibition”. Further, in assay [1] (50 nM SEA0400, -70 mV versus +30 mV, 1 mM Ca2+), the “voltage dependence of decrease of steady-state amplitude” value is “did not depend on membrane voltage”. For the same molecule, the “effect on steady-state amplitude of NMDA-activated currents in Ca2+-free solution” value in assay [1] (50 nM SEA0400, Ca2+ omitted from external solution, -70 mV) is listed as “abolished the effect; also recorded: did not cause any decrease”. The “decrease of steady-state amplitude of NMDAR currents (upper limit of effect)” value in assay [1] (SEA0400 itself, extracellular Ca2+ present) is listed as no more than 30%. For the same molecule, the “decay time constant of NMDAR current from peak to steady state” value in assay [1] (in the presence of 50 nM SEA0400, 1 mM Ca2+, -70 mV) turned out to be 2.0 ± 0.2 s.

Consider `c1ccc(C2(N3CCCCC3)CCCCC2)cc1` [phencyclidine], for which the “rate constant of dissociation from NMDAR channels” value in the assay on NMDAR channels is on record as “about 0.03 s^-1”.
